A short description of data set [1]: Phase I 3 + 3 dose escalation and expansion: DLT, MTD and RP2D. It is filed as in vivo, human. Particulars: extensive CYP2C19 metabolizers.
A further data set is described as follows: clinical. Particulars: human, in vivo.
The test system of a further data set is CYP3A4. Particulars: cited from earlier work.
The conditions of data set [2]: cited from earlier work.
The subject of a further data set is hepatocellular carcinoma. Particulars: patients with hepatocellular carcinoma, p=0.04, cited from earlier work.
A further data set deals with CYP2C19 and CYP3A4/5. The settings on record: cited from earlier work.

As for `CO[C@H]1C[C@@H]2CC[C@@H](C)[C@@](O)(O2)C(=O)C(=O)N2CCCC[C@H]2C(=O)O[C@H]([C@H](C)C[C@@H]2CC[C@@H](OC(=O)C(C)(CO)CO)[C@H](OC)C2)CC(=O)[C@H](C)/C=C(\C)[C@@H](O)[C@@H](OC)C(=O)[C@H](C)C[C@H](C)/C=C/C=C/C=C/1C` [temsirolimus], the “MTD and RP2D, temsirolimus” value in data set [1] (intravenous, in combination with tivantinib) worked out at 20 mg weekly. Further, in the data set “clinical”, the “AUC0–∞, ratio (%) geometric means” value was 1.09% and the “Cmax, ratio (%) geometric means” value is reported as 0.94%. Moreover, the AUC(0-inf) in the data set “clinical” (AUC0–∞, geometric mean) turned out to be 1340 ng·h/mL. The same compound displayed a Cmax in the data set “clinical” (Cmax, geometric mean) of 363 ng/mL. For the same compound, the metabolizing enzymes result with CYP3A4 was “primarily metabolized by CYP3A4”.
Take `O=C1NC(=O)[C@@H](c2cn3c4c(cccc24)CCC3)[C@@H]1c1c[nH]c2ccccc12` [tivantinib]: the “MTD and RP2D, tivantinib” value in data set [1] (oral, in combination with temsirolimus) was 240 mg twice daily. Also, in the data set “clinical”, the “Dose adjusted AUC0–12, geometric mean” value is 67.78 ng·h/mL/mg and the “Dose adjusted Cmax, geometric mean” value worked out at 9.27 ng/mL/mg. Moreover, the “RP2D in CYP2C19 poor metabolizers” value in data set [2] is recorded as 240 mg twice daily. Further, the “time to progression, HR vs placebo” value in the data set on hepatocellular carcinoma (90% CI 0.43–0.94) was 0.64. The time to progression with hepatocellular carcinoma (placebo 1.4 months) is 1.6 months. For the same compound, the metabolizing enzymes entry with CYP2C19 and CYP3A4/5 is “metabolized primarily by CYP2C19 and partially by CYP3A4/5”.

(Values after article PMC5809175 (Investigational new drugs, 2016).)
